For this assay, the system named is H37Rv cells. The assay is classed as cell-based, Mycobacterium tuberculosis.

SMILES strings stand for the structures. Several values for one entry are separate records, joined by “and”; a condition that tells them apart may be missing. Equal values may be shown once.

As to `CN(C)c1ncnc2sc(-c3c(F)c(F)c(F)c(F)c3F)nc12.Cl` [Compound 1, CN(C)c1ncnc2sc(nc12)-c1c(c(c(c(c1F)F)F)F)F], the “frequency of resistant colonies” value was 10^–7 and 10^–8.

The record behind these values is publication PMC11915372, “Identification of a Series Containing a Pentafluorophenyl Moiety That Targets Pks13 to Inhibit Growth of Mycobacterium tuberculosis” (ACS Infectious Diseases, 2025).
